Experimental data from ChEMBL document CHEMBL1275463, “Detection of the erythromycin rRNA methylase gene erm(A) in Enterococcus faecalis” (2008).
≈ marks a conversion by molar mass, not a printed value.

Experiments:
Enterococcus faecalis [1] = assay: Antimicrobial activity against Enterococcus faecalis expressing rRNA methylase gene erm(A) obtained from pig manure by broth microdilution method; assay type: functional
Enterococcus faecalis [2] = assay: Antimicrobial activity against Enterococcus faecalis expressing rRNA methylase gene erm(A) obtained from human by broth microdilution method; assay type: functional

SMILES | MIC (Enterococcus faecalis [1]) | MIC (Enterococcus faecalis [2])
CN(C)[C@@H]1C(O)=C(C(N)=O)C(=O)[C@@]2(O)C(O)=C3C(=O)c4c(O)cccc4[C@@](C)(O)[C@H]3C[C@@H]12 [TETRACYCLINE] | > 4 µg/mL | > 4 µg/mL
CC[C@H]1OC(=O)[C@H](C)[C@@H](O[C@H]2C[C@@](C)(OC)[C@@H](O)[C@H](C)O2)[C@H](C)[C@@H](O[C@@H]2O[C@H](C)C[C@H](N(C)C)[C@H]2O)[C@](C)(O)C[C@@H](C)C(=O)[C@H](C)[C@@H](O)[C@]1(C)O [ERYTHROMYCIN] | > 8 µg/mL | 1 µg/mL (≈ 1.36 µM)
